Assay results reported in patent US20240376163A1, “PEPTIDE FOR INHIBITING CALCINEURIN AND USE THEREOF” (Seoul National University R&DB Foundation, priority 2023, published 2024).
Read-outs that look alike come from different tables or passages of the source.

Legend:
Jurkat T cells = experiment: DMOG treatment of Jurkat T cells expressing CABIN1 peptide, immunoprecipitation and Western blotting; type: cell-based
Experimental: In FIG. 6A, Jurkat T cells expressing HA-mCherry-tagged CABIN1 peptide were treated with DMOG for 12 hours in a dose-dependent manner. In FIG. 6B, Jurkat T cells expressing HA-mCherry-tagged CABIN1 peptide were treated with 500 μM DMOG over time. Each cell lysate was immunoprecipitated with HA antibodies, and CNA bound to CABIN1 peptides was detected by Western blotting. HIF-1α was used as a positive control for DMOG treatment. In FIG. 6C, HEK293T cells were transfected with GST-tagged peptides and subjected to GST pull-down assay. Hydroxyproline and O-linked glycosylation of each peptide were detected by Western blotting. NC: negative control.
(§1) Cells were lysed in IP150 buffer and immunoprecipitated Flag- and HA-tagged proteins using Anti-FLAG® M2 Affinity Gel (Sigma-Aldrich) and Pierce™ Anti-HA Agarose (Thermo Fisher Scientific), respectively. Conventional methods were used to construct the buffer and subsequent processes (Kim, H. J. et al. Nuclear Acids Res. 46, 6544-6560 (2018)). To quantify the Western blotting results, band regions were measured using ImageJ (https://imagej.nih.gov/ij/).

CNAβ2 [1] = biological target: T1, CNAβ2 (Homo sapiens, UniProt P16298); experiment: Immunoprecipitation assay of Flag-CNAβ2 and tagged peptides in HEK293T cells; type: cell-based
T1 construct: expressed in transfected cells; host or cells: HEK293T
Experimental: as §1

[2] = system: NFAT transcriptional activity; experiment: NFAT luciferase reporter assay in Jurkat T cells expressing GST-tagged peptides; type: cell-based; conditions: PMA and ionomycin treatment
Experimental: (§2) To measure the transcriptional activity of NFAT, Jurkat T cells were cotransfected with GST-tagged peptides and NFAT-luc by electroporation. After 24 hours, the cells were pretreated with 0.5 μM FK506 for 1 hour and then treated with 40 nM PMA and 1 μM ionomycin for 8 hours. For mammalian two-hybrid assay, HEK293T cells were cotransfected with GAL4 DBD-tagged CABIN1, VIVIT, chimeric, and substituted peptides, VP16 activation domain-tagged CNAβ2, and pG5-luc (a luciferase reporter plasmid containing the GAL4 reaction promoter) for 24 hours. Harvested cells were lysed with luciferase assay lysis buffer (17 mM KH2PO4, 183 mM K2HPO4, pH 7.8, 0.2% [v/v] Triton X-100) and sonicated briefly. The luciferase activity against each cell lysate was measured using Infinite M200 (Tecan, Männedorf, and Switzerland). In addition, the expression level of the transfected protein was confirmed by Western blotting.

CNA [3] = experiment: Kd (1/S)
Experimental: (§3) Table printed on a drawing sheet, FIG. 7G
Head of the field: Kd (1/S)
(§4) FIG. 7A is the sequence of the CABIN1 peptide with a threonine to valine substitution (TV). […] In FIG. 7C, a luciferase reporter assay was performed to measure NFAT transcriptional activity in Jurkat T cells expressing GST-tagged CABIN1 peptides under PMA and ionomycin treatment (n=3). […] CNA bound to the peptide and phosphorylated threonine were detected by Western blotting. In FIG. 7E, phosphorylation of the 9th threonine of the CABIN1 peptide (threonine 2154 of full-length CABIN1) was detected by LC-MS/MS in Jurkat T cells. In FIG. 7F, an in vitro pull-down assay was performed using streptavidin-coupled agarose beads. CNA bound to the biotinylated peptide was detected with a His antibody. VEET peptide was used as a negative control. In FIG. 7G, CNA binding to biotinylated CABIN1 peptide according to the presence or absence of phosphorylation of the 9th threonine was measured by SPR. CNA concentration ranges are 1.25, 2.5, 5, and 10 nM. The kinetics of the interaction were calculated using the data of the CABIN1 peptide-captured cells minus the negative control peptide-captured cell. The values shown are mean±standard deviation. RU: […], NC: negative control.
(§5) First copying reader's note: SPR binding kinetics of the peptides to CNA; each cell holds the value together with its ± deviation. […]

CNA [4] = experiment: Ka (1/MS)
Experimental: as §3
Head of the field: Ka (1/MS)
as §4, §5

CNAβ2 [5] = biological target: T1, CNAβ2; experiment: Mammalian two-hybrid assay (GAL4 DBD-peptides, VP16 AD-CNAβ2, pG5-luc) in HEK293T cells; type: cell-based
Experimental: as §2

CNA [6] = experiment: In vitro His-pull down assay with purified protein; type: binding
Experimental: (§7) A His-pulldown assay was performed with 0.5 ml of IP150 buffer containing 0.5 mM EDTA. His-tagged CNA and GST-tagged peptides were mixed and captured on Ni-NTA agarose beads (Qiagen, Hilden, Germany). The beads were washed three times with binding buffer, and the proteins were analyzed by Western blotting. GST-tagged peptides were pulled down using Glutathione Sepharose™ 4 Fast Flow (Cytiva, Marlborough, MA, USA), and biotin-labeled peptides were pulled down using Streptavidin Agarose Resin (Thermo Fisher Scientific).

JNK1 = biological target: T2, JNK1 (Homo sapiens, UniProt P45983); experiment: In vitro kinase assay; type: biochemical; conditions: purified GST-tagged peptide
T2 construct: purchased Proqinase GmbH (Freiburg, Germany)
Experimental: (§6) Purified GST-tagged peptides were used for the in vitro kinase assay using activated recombinant kinase obtained from Proqinase GmbH (Freiburg, Germany). Kinase reactions were induced in reaction buffer (50 mM HEPES-NaOH, pH 7.5, 3 mM MgCl2, 3 mM MnCl2, 3 μM sodium orthobanadate, 1 mM dithiothreitol, 50 μM unlabeled ATP, 5 μCi 32P-γ-ATP) for 1 hour at 30° C. The reaction was stopped by the addition of 5× sample buffer, and proteins were isolated using SDS-PAGE. The gels were stained with Coomassie Brilliant Blue, dried, and developed on X-ray film.

p38a [7] = biological target: T3, p38a (Homo sapiens, UniProt Q16539); experiment: In vitro kinase assay; type: biochemical; conditions: purified GST-tagged peptide
Experimental: as §6

ERK2 = biological target: T4, ERK2 (Homo sapiens, UniProt P28482); experiment: In vitro kinase assay; type: biochemical; conditions: purified GST-tagged peptide
T4 construct: purchased Proqinase GmbH (Freiburg, Germany)
Experimental: as §6

CNA [8] = conditions: SPR, CNA 1.25-10 nM
Experimental: Biacore T200 (Cytiva) was used to capture biotin-labeled peptides on the surface of Series S Sensor Chip SA (Cytiva). […] Each cycle was performed at 25° C. with 120 seconds of contact and 240 seconds of dissociation at a flow rate of 30 μl/min. The kinetics of the interaction were analyzed using BIAvaluation 3.2 RC1 (Cytiva).

CNA [9] = conditions: biotin-labeled peptides
Experimental: as §7

p38a [10] = biological target: T3, p38a; experiment: p38 inhibitor treatment of Jurkat T cells expressing CABIN1 peptide, immunoprecipitation and Western blotting; type: cell-based; set-up: endogenous in cells; host or cells: Jurkat T (E6-1); conditions: 10 μM, 16 hours
Experimental: In FIG. 8A, Jurkat T cells expressing HA-mCherry-tagged CABIN1 peptide were treated with 40 nM PMA in a time-dependent manner. Phosphorylated threonine in peptides immunoprecipitated with HA antibody was detected with [PXpTP] antibody. […] In FIG. 8G, Jurkat T cells expressing HA-mCherry-tagged CABIN1 peptide were treated with 10 μM p38a inhibitor for 16 hours. Immunoprecipitation was performed with HA antibody and detected by Western blotting. In FIG. 8H, phosphorylated threonine and peptide-bound CNA in FIG. 8G were measured using ImageJ, and the ratio of phosphorylation and calcineurin bound to CABIN1 peptide was calculated (n=6). The values shown are mean±standard deviation. Statistical differences were determined using one-way analysis of variance. * p<0.05, ** p<0.01, *** p<0.001, CBB: Coomassie Brilliant Blue, NC: negative control.
Cells were lysed in IP150 buffer and immunoprecipitated Flag- and HA-tagged proteins using Anti-FLAG® M2 Affinity Gel (Sigma-Aldrich) and Pierce™ Anti-HA Agarose (Thermo Fisher Scientific), respectively. […] To quantify the Western blotting results, band regions were measured using ImageJ (https://imagej.nih.gov/ij/).

T3 sequence (Q16539 whole entry): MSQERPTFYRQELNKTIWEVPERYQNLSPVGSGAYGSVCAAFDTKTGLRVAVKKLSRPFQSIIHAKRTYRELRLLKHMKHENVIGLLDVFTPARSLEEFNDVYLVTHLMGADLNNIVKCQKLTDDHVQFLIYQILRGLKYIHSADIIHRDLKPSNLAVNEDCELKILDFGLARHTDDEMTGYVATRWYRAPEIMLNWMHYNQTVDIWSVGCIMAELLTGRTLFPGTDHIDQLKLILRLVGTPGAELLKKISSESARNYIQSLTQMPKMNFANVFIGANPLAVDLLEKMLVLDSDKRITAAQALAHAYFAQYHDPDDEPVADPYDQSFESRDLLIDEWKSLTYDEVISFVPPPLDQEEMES
T1 sequence (P63098 2-170 partner limits assumed, other chains not shown): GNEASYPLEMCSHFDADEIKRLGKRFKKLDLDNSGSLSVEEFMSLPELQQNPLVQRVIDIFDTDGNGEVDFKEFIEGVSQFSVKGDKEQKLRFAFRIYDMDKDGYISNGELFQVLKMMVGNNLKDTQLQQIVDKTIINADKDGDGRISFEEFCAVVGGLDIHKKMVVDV
T4 sequence (P28482 whole entry): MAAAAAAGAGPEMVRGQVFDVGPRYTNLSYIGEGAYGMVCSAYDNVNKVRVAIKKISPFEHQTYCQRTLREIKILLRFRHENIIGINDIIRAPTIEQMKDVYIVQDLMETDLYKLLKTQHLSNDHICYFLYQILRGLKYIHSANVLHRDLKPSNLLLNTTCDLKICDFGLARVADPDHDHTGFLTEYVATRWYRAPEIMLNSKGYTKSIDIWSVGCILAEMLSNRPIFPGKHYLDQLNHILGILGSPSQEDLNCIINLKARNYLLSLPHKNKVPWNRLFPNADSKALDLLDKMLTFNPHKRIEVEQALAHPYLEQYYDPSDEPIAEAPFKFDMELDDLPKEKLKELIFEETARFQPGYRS
T2 sequence (P45983 whole entry): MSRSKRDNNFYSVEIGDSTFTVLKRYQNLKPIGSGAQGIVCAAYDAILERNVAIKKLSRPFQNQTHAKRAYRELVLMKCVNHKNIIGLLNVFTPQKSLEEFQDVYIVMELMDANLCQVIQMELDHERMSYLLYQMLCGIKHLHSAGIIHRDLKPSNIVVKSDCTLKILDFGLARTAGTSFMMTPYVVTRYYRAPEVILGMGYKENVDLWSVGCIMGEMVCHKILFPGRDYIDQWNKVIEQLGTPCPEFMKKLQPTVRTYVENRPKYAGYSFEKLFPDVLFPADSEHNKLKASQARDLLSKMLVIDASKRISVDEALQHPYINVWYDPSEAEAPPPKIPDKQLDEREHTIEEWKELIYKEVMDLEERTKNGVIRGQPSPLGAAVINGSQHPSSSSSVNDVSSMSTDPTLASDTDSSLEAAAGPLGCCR

## COC(=O)CNC(=O)C(=O)OC [DMOG, dimethyloxalylglycine]
Jurkat T cells; DMOG dose-dependent 12 hours or 500 μM over time
  interaction between CABIN1 peptide and CNA: had no effect on the interaction between CABIN1 peptide and CNA
Jurkat T cells; positive control for DMOG treatment
  HIF-1α stabilization: stabilized HIF-1α

## T9V: CABIN1 peptide with threonine 9 (threonine 2154 of full-length CABIN1) replaced with valine (PEITVTPPVP; left off: a dimerising Fc or GST; small tags and cut ends)
CNAβ2 [1]
  interaction with CNA in cells: loss of interaction in cell experiments
[2]
  NFAT transcriptional activity (luciferase activity): restored the transcriptional activity of NFAT inhibited by the wild-type CABIN1 peptide more efficiently than the T6V substitution

## MAGFPPEITVTPPTP [CABIN1-L-1] [listing 1 of 2 here]
CNA [3]
  dissociation rate constant (koff): 1.31e-3±6.1e-5 1/S
CNA [4]
  association rate constant (kon): 2613.3±421.5 1/MS

## MAGFPPEITVTPPTP [CABIN1-L-1] [listing 2 of 2 here]
CNAβ2 [5]; GAL4 DBD-tagged peptides, VP16 activation domain-tagged CNA, HEK293T
  binding to CNA: significantly stronger affinity for CNA than CABIN1-14

## T6V: CABIN1 peptide with threonine 6 (threonine 2151 of full-length CABIN1) replaced with valine (PEITVVPPTP; left off: a dimerising Fc or GST; small tags and cut ends)
CNAβ2 [1]
  interaction with CNA in cells: loss of interaction between the CABIN1 peptide and CNA in cells and in vitro
CNA [6]
  binding to CNA in vitro: loss of interaction between the CABIN1 peptide and CNA in cells and in vitro

## PVIVITPPTP [VIVIT PPTP]
CNAβ2 [5]; C-terminus PPTP sequence
  improvement of interaction with CNA, VIVIT PPTP vs. VIVIT 10-mer: 4.76 fold
CNAβ2 [5]; N-terminus PVIVIT
  improvement of interaction with CNA, VIVIT PPTP vs. L-1-2 WT: 1.93 fold
JNK1
  phosphorylation by JNK1: phosphorylate
p38a [7]
  phosphorylation by p38a: phosphorylate
ERK2
  phosphorylation by ERK2: phosphorylate

## Biotin-AAAMAGFPPEITVTPP {pTHR} P [phosphorylated CABIN1-L-1]
CNA [8]; listed as phosphorylated CABIN1 peptide
  increase of binding affinity to CNA, phosphorylated vs unphosphorylated CABIN1 peptide: about three times
CNA [8]; listed as phosphorylated CABIN1 peptides
  increase of binding affinity to CNA, phosphorylated vs unphosphorylated CABIN1 peptide: approximately three-fold
CNA [9]
  affinity for CNA (pull-down): dramatically increased the affinity for CNA

## Cc1ccccc1C(=O)c1ccc(Nc2ccc(Br)cc2N)cc1Cl [EO 1428]
p38a [10]
  binding affinity of CABIN1 peptide for CNA: reducing binding affinity for CNA
  phosphorylation of the CABIN1 peptide: significantly reduced phosphorylation of the CABIN1 peptide
